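Grown in 96-well plates, cells were treated for 48 hours with each compound at five concentrations. Insufficient inhibition: endpoint recorded as highest concentration tested. GI50 marks 50% less growth. TGI denotes the concentration required for complete inhibition of growth.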
Assays:
Test in all cases: inhibition of tumour cell growth, NCI panel, 48 h
HOP-18 NSCLC = system: HOP-18 NSCLC
NCI-H460 lung = system: NCI-H460 lung
SNB-19 CNS = system: SNB-19 CNS
HOP-62 NSCLC = system: HOP-62 NSCLC
EKVX NSCLC = system: EKVX NSCLC
M19-MEL melanoma = system: M19-MEL melanoma
NCI-H23 lung = system: NCI-H23 lung
SNB-75 CNS = system: SNB-75 CNS
BT-549 breast = system: BT-549 breast
PC-3 prostate = system: PC-3 prostate

## CCOc1ccc(N=Nc2c(-c3ccccc3)nn(C(=O)CC(=O)Nc3ccccc3Cl)c2-c2ccccc2)cc1
HOP-18 NSCLC
  TGI: > 100 µM
NCI-H460 lung
  TGI: > 100 µM
SNB-19 CNS
  TGI: > 100 µM
HOP-62 NSCLC
  TGI: > 100 µM
EKVX NSCLC
  TGI: > 100 µM
M19-MEL melanoma
  TGI: > 100 µM
NCI-H23 lung
  TGI: > 100 µM
SNB-75 CNS
  TGI: 90.6 µM

## Nc1cccc(C(=O)/C=C/c2ccccc2O)c1
HOP-18 NSCLC
  TGI: > 100 µM
NCI-H460 lung
  TGI: > 100 µM
SNB-19 CNS
  TGI: > 100 µM
HOP-62 NSCLC
  TGI: > 100 µM
EKVX NSCLC
  TGI: > 100 µM
M19-MEL melanoma
  TGI: > 100 µM
NCI-H23 lung
  TGI: > 100 µM
SNB-75 CNS
  TGI: > 100 µM

## CCOC(=O)C(=O)Nc1nc2ccc(OC)cc2s1
HOP-18 NSCLC
  TGI: > 100 µM
NCI-H460 lung
  TGI: > 100 µM
SNB-19 CNS
  TGI: > 100 µM
HOP-62 NSCLC
  TGI: > 100 µM
EKVX NSCLC
  TGI: > 100 µM
M19-MEL melanoma
  TGI: > 100 µM
NCI-H23 lung
  TGI: > 100 µM
SNB-75 CNS
  TGI: > 100 µM

## Cc1cccc(NC(=O)CSc2nnc(-c3ccc(N=Cc4ccc(Cl)cc4)cc3)o2)c1
HOP-18 NSCLC
  TGI: > 100 µM
NCI-H460 lung
  TGI: > 100 µM
SNB-19 CNS
  TGI: > 100 µM
HOP-62 NSCLC
  TGI: > 100 µM
EKVX NSCLC
  TGI: > 100 µM
M19-MEL melanoma
  TGI: > 100 µM
NCI-H23 lung
  TGI: > 100 µM
SNB-75 CNS
  TGI: > 100 µM

## Cc1ccc(-n2cc(/C(N)=N/O)c3ccccc3c2=O)cc1
NCI-H460 lung
  TGI: > 100 µM
SNB-19 CNS
  TGI: > 100 µM
HOP-62 NSCLC
  TGI: > 100 µM
EKVX NSCLC
  TGI: > 100 µM
M19-MEL melanoma
  TGI: > 100 µM
NCI-H23 lung
  TGI: > 100 µM

## C=C(/C=C/C=C(\CO)CCC=C(C)C)[C@H]1CCC2([C@H](CCCO)/C(=C(/C)C=O)CC[C@]2(C)O)[C@H]1O (stereo not given in full)
HOP-18 NSCLC
  TGI: > 100 µM
NCI-H460 lung
  TGI: > 100 µM
SNB-19 CNS
  TGI: > 100 µM
HOP-62 NSCLC
  TGI: > 100 µM
EKVX NSCLC
  TGI: > 100 µM
M19-MEL melanoma
  TGI: > 100 µM
NCI-H23 lung
  TGI: > 100 µM
SNB-75 CNS
  TGI: > 100 µM

## CN(C)CN(C)c1nc(N(C)C)nc(N(C)C)n1
HOP-18 NSCLC
  TGI: > 100 µM
NCI-H460 lung
  TGI: > 100 µM
SNB-19 CNS
  TGI: > 100 µM
HOP-62 NSCLC
  TGI: > 100 µM
EKVX NSCLC
  TGI: > 100 µM
M19-MEL melanoma
  TGI: > 100 µM
NCI-H23 lung
  TGI: > 100 µM
SNB-75 CNS
  TGI: > 100 µM

## Cc1cc2nc3c(C(OC4OC(CO)C(O)C(O)C4O)C(O)CO)nn(-c4ccc(F)cc4)c3nc2cc1C (stereo not given)
NCI-H460 lung
  TGI: > 100 µM
SNB-19 CNS
  TGI: > 100 µM
HOP-62 NSCLC
  TGI: > 100 µM
EKVX NSCLC
  TGI: > 100 µM
M19-MEL melanoma
  TGI: > 100 µM
NCI-H23 lung
  TGI: > 100 µM
SNB-75 CNS
  TGI: > 100 µM

## c1ccc2c(c1)n1nnnc1c1nnnn21
NCI-H460 lung
  TGI: > 100 µM
SNB-19 CNS
  TGI: > 100 µM
HOP-62 NSCLC
  TGI: > 100 µM
EKVX NSCLC
  TGI: > 100 µM
M19-MEL melanoma
  TGI: > 100 µM
NCI-H23 lung
  TGI: > 100 µM
SNB-75 CNS
  TGI: 84.3 µM

## COc1cc2c(c(OC)c1OC)-c1ccc(SC)c(=O)cc1C(CC(=O)Oc1ccccc1F)C2 (stereo not given)
NCI-H460 lung
  TGI: > 7.5 µM
SNB-19 CNS
  TGI: > 7.5 µM
HOP-62 NSCLC
  TGI: > 7.5 µM
M19-MEL melanoma
  TGI: > 7.5 µM
NCI-H23 lung
  TGI: 0.0894 µM
SNB-75 CNS
  TGI: > 7.5 µM

## O=C(Nc1c(Cl)cc([N+](=O)[O-])cc1Cl)C(=O)C(C(=O)c1ccncc1)C1OC(=O)c2ccccc21 (stereo not given)
HOP-18 NSCLC
  TGI: > 100 µM
NCI-H460 lung
  TGI: > 100 µM
SNB-19 CNS
  TGI: > 100 µM
HOP-62 NSCLC
  TGI: > 100 µM
EKVX NSCLC
  TGI: > 100 µM
M19-MEL melanoma
  TGI: > 100 µM
NCI-H23 lung
  TGI: > 100 µM
SNB-75 CNS
  TGI: > 100 µM

## Cc1c(C(=O)/C=C/c2ccc3c(c2)OCO3)[n+](=O)c2ccccc2n1[O-]
HOP-18 NSCLC
  TGI: > 100 µM
NCI-H460 lung
  TGI: 75.6 µM
SNB-19 CNS
  TGI: > 100 µM
HOP-62 NSCLC
  TGI: > 100 µM
EKVX NSCLC
  TGI: 69.3 µM
M19-MEL melanoma
  TGI: > 100 µM
NCI-H23 lung
  TGI: 42.4 µM
SNB-75 CNS
  TGI: 68.6 µM

## Clc1ccc(/C=C/c2csnn2)cc1
HOP-18 NSCLC
  TGI: > 100 µM
NCI-H460 lung
  TGI: > 100 µM
SNB-19 CNS
  TGI: > 100 µM
HOP-62 NSCLC
  TGI: > 100 µM
EKVX NSCLC
  TGI: > 100 µM
M19-MEL melanoma
  TGI: > 100 µM
NCI-H23 lung
  TGI: > 100 µM
SNB-75 CNS
  TGI: > 100 µM

## O=C(/C=N/O)Nc1cccc(Cl)c1I
NCI-H460 lung
  TGI: > 100 µM
SNB-19 CNS
  TGI: > 100 µM
HOP-62 NSCLC
  TGI: > 100 µM
EKVX NSCLC
  TGI: 79.4 µM
M19-MEL melanoma
  TGI: > 100 µM
NCI-H23 lung
  TGI: > 100 µM
SNB-75 CNS
  TGI: 43.4 µM

## CNC(=O)N(CCCCC(NC(C)=O)C(=O)NCc1ccccc1)Cc1ccccc1 (stereo not given)
NCI-H460 lung
  TGI: > 100 µM
SNB-19 CNS
  TGI: > 100 µM
HOP-62 NSCLC
  TGI: > 100 µM
EKVX NSCLC
  TGI: > 100 µM
M19-MEL melanoma
  TGI: > 100 µM
NCI-H23 lung
  TGI: > 100 µM
SNB-75 CNS
  TGI: > 100 µM

## O=C([CH-]C(=O)c1ccccc1)c1ccccc1.[CH2-]C.[CH2-]C.[Tl+3]
BT-549 breast
  GI50: 26.9 µM
  TGI: > 100 µM
HOP-18 NSCLC
  GI50: 28.5 µM
  TGI: > 100 µM
NCI-H460 lung
  GI50: 10.8 µM
  TGI: > 100 µM
PC-3 prostate
  GI50: 32 µM
  TGI: > 100 µM
SNB-19 CNS
  GI50: 31.2 µM
  TGI: > 100 µM
HOP-62 NSCLC
  GI50: 22.2 µM
  TGI: > 90.2 µM
EKVX NSCLC
  GI50: 19.7 µM
  TGI: 80.1 µM
NCI-H23 lung
  GI50: 32.3 µM
  TGI: > 100 µM
SNB-75 CNS
  GI50: 25.2 µM
  TGI: > 100 µM

## COc1cc([C@H]2c3cc4c(cc3[C@H](NCc3ccc(F)cc3)C3COC(=O)[C@H]32)OCO4)cc(OC)c1O (stereo not given in full)
HOP-18 NSCLC
  TGI: > 100 µM
NCI-H460 lung
  TGI: 12.3 µM
SNB-19 CNS
  TGI: 51.2 µM
HOP-62 NSCLC
  TGI: 3.82 µM
EKVX NSCLC
  TGI: 28.8 µM
M19-MEL melanoma
  TGI: 23.4 µM
NCI-H23 lung
  TGI: 6.34 µM
SNB-75 CNS
  TGI: 9.16 µM

## O=S1(=O)CS(=O)(=O)OCCCCCO1
HOP-18 NSCLC
  TGI: > 100 µM
NCI-H460 lung
  TGI: > 100 µM
SNB-19 CNS
  TGI: > 100 µM
EKVX NSCLC
  TGI: > 100 µM
M19-MEL melanoma
  TGI: > 100 µM
NCI-H23 lung
  TGI: > 100 µM
SNB-75 CNS
  TGI: > 100 µM

## COc1cc2ccc(CC(=O)O)cc2cc1OC
HOP-18 NSCLC
  TGI: > 100 µM
SNB-19 CNS
  TGI: > 100 µM
HOP-62 NSCLC
  TGI: > 100 µM
EKVX NSCLC
  TGI: > 100 µM
M19-MEL melanoma
  TGI: > 100 µM
NCI-H23 lung
  TGI: > 100 µM
SNB-75 CNS
  TGI: > 100 µM

## Cc1ccccc1NC(=O)C(=O)CC(=O)c1sc(-n2nc(-c3ccccc3)cc2-c2ccccc2)nc1C
NCI-H460 lung
  TGI: > 100 µM
SNB-19 CNS
  TGI: > 100 µM
HOP-62 NSCLC
  TGI: > 100 µM
EKVX NSCLC
  TGI: > 100 µM
M19-MEL melanoma
  TGI: > 100 µM
NCI-H23 lung
  TGI: > 100 µM
SNB-75 CNS
  TGI: > 100 µM

## NC(=O)C1C(=O)Oc2cccnc21 (stereo not given)
HOP-18 NSCLC
  TGI: > 100 µM
NCI-H460 lung
  TGI: > 100 µM
SNB-19 CNS
  TGI: > 100 µM
HOP-62 NSCLC
  TGI: > 100 µM
EKVX NSCLC
  TGI: > 100 µM
M19-MEL melanoma
  TGI: > 100 µM
NCI-H23 lung
  TGI: > 100 µM
SNB-75 CNS
  TGI: > 100 µM

## Cc1ccc(/C=C2\CCCC(C(NO)c3ccc(C)cc3)C2=NO)cc1 (stereo not given)
HOP-18 NSCLC
  TGI: > 100 µM
NCI-H460 lung
  TGI: 62.6 µM
SNB-19 CNS
  TGI: > 100 µM
HOP-62 NSCLC
  TGI: > 100 µM
EKVX NSCLC
  TGI: > 100 µM
M19-MEL melanoma
  TGI: > 100 µM
NCI-H23 lung
  TGI: 73.2 µM
SNB-75 CNS
  TGI: 98.2 µM

## O=C(/C=C/c1ccccn1)c1ccccc1
BT-549 breast
  GI50: 14.4 µM
  TGI: 27.6 µM
NCI-H460 lung
  GI50: 4.44 µM
  TGI: 18.1 µM
PC-3 prostate
  GI50: 4.22 µM
  TGI: 17 µM
SNB-19 CNS
  GI50: 12 µM
  TGI: 26.7 µM
HOP-62 NSCLC
  GI50: 10.2 µM
  TGI: 22 µM
EKVX NSCLC
  GI50: 15.4 µM
  TGI: 31.2 µM
NCI-H23 lung
  GI50: 16.3 µM
  TGI: 34.8 µM
SNB-75 CNS
  GI50: 5.57 µM
  TGI: 21 µM

## CN(C)CCC(/C=C/c1ccccc1)=N\Nc1c(F)c(F)c(F)c(F)c1F
HOP-18 NSCLC
  TGI: > 100 µM
NCI-H460 lung
  TGI: > 100 µM
SNB-19 CNS
  TGI: > 100 µM
HOP-62 NSCLC
  TGI: > 100 µM
EKVX NSCLC
  TGI: > 100 µM
M19-MEL melanoma
  TGI: > 100 µM
NCI-H23 lung
  TGI: > 100 µM
SNB-75 CNS
  TGI: > 100 µM

## COc1ccc2c(c1)CCC1C2CCC2(C)C(NC(=O)CCCCC3CCSS3)CCC12 (stereo not given)
BT-549 breast
  GI50: > 100 µM
  TGI: > 100 µM
NCI-H460 lung
  GI50: 4.84 µM
  TGI: 93.3 µM
PC-3 prostate
  GI50: 7.18 µM
  TGI: > 100 µM
SNB-19 CNS
  GI50: > 100 µM
  TGI: > 100 µM
HOP-62 NSCLC
  GI50: > 100 µM
  TGI: > 100 µM
EKVX NSCLC
  GI50: > 100 µM
  TGI: > 100 µM
NCI-H23 lung
  GI50: > 100 µM
  TGI: > 100 µM
SNB-75 CNS
  GI50: 18.2 µM
  TGI: > 100 µM

Source: PubChem BioAssay (NCI)
